Patent publication US20240400591A1 (Jacobio Pharmaceuticals Co., Ltd., priority 2021, published 2024)

Biological target: T1, His-p53 Y220C (94-294) protein (Homo sapiens, UniProt P04637, Y220C)
T1 construct: His-p53 Y220C (94-294) protein
Test: In vitro DNA binding assay (HTRF)
Format: biochemical
Details: % activation normalized to 2 μM Ref-1a high control

Row | SMILES | EC50 [nM]
1 | COc1cc(P(C)(C)=O)cc(F)c1NCC#Cc1sc2c(N[C@@H]3CCN(C)C[C@@H]3F)cccc2c1CC(F)(F)F [Example 206, (3-fluoro-4-((3-(7-(((3S,4R)-3-fluoro-1-methylpiperidin-4-yl)amino)-3-(2,2,2-trifluoroethyl)benzo[b]thiophen-2-yl)prop-2-yn-1-yl)amino)-5-methoxyphenyl)dimethylphosphine oxide] | 205
2 | COc1cc(S(C)(=O)=O)ccc1NCC#Cc1sc2c(NCC3CCN(C)CC3)cccc2c1CC(F)(F)F [Example 56, 2-(3-((2-methoxy-4-(methylsulfonyl)phenyl)amino)prop-1-yn-1-yl)-N-((1-methylpiperidin-4-yl)methyl)-3-(2,2,2-trifluoroethyl)benzo[b]thiophen-7-amine] | 284
3 | COc1cc(S(C)(=O)=O)ccc1NCC#Cc1sc2c(NC3CC4CCC(C3)N4C)cccc2c1CC(F)(F)F (centres unmarked) [Example 26, N-(2-(3-((2-methoxy-4-(methylsulfonyl)phenyl)amino)prop-1-yn-1-yl)-3-(2,2,2-trifluoroethyl)benzo[b]thiophen-7-yl)-8-methyl-8-azabicyclo[3.2.1]octan-3-amine] | 169
4 | COc1cc(S(C)(=O)=O)ccc1NCC#Cc1sc2c(NC3CCCN(C)CC3)cccc2c1CC(F)(F)F (centres unmarked) [Example 55, N-(2-(3-((2-methoxy-4-(methylsulfonyl)phenyl)amino)prop-1-yn-1-yl)-3-(2,2,2-trifluoroethyl)benzo[b]thiophen-7-yl)-1-methylazepan-4-amine] | 122
5 | CCP(=O)(CC)c1ccc(NCC#Cc2sc3c(N[C@@H]4CCN(C5CCOCC5)C[C@@H]4F)cccc3c2CC(F)(F)F)c(OC)c1 [Example 156, diethyl(4-((3-(7-(((3S,4R)-3-fluoro-1-(tetrahydro-2H-pyran-4-yl)piperidin-4-yl)amino)-3-(2,2,2-trifluoroethyl)benzo[b]thiophen-2-yl)prop-2-yn-1-yl)amino)-3-methoxyphenyl)phosphine oxide] | 108
6 | COc1cc(S(=O)(=O)N2CCOCC2)ccc1NCC#Cc1sc2c(NC3CCN(C)CC3)cccc2c1CC(F)(F)F [Example 22, N-(2-(3-((2-methoxy-4-(morpholinosulfonyl)phenyl)amino)prop-1-yn-1-yl)-3-(2,2,2-trifluoroethyl)benzo[b]thiophen-7-yl)-1-methylpiperidin-4-amine] | 288
7 | CN1CCC(Nc2cccc3c(CC(F)(F)F)c(C#CCNc4ccc(S(C)(=O)=O)cc4OCC(F)F)sc23)CC1 [Example 12, N-(2-(3-((2-(2,2-difluoroethoxy)-4-(methylsulfonyl)phenyl)amino)prop-1-yn-1-yl)-3-(2,2,2-trifluoroethyl)benzo[b]thiophen-7-yl)-1-methylpiperidin-4-amine] | 141
8 | COc1cc(S(C)(=O)=O)ccc1NCC#Cc1cc2c(N[C@H]3CC[C@@H](N4CC5(COC5)C4)CC3)cccc2n1CC(F)(F)F [Example 39, Cis-N-(4-(2-oxa-6-azaspiro[3.3]heptan-6-yl)cyclohexyl)-2-(3-((2-methoxy-4-(methylsulfonyl)phenyl)amino)prop-1-yn-1-yl)-1-(2,2,2-trifluoroethyl)-1H-indol-4-amine] | 157
9 | CSc1c(NCC#Cc2sc3c(N[C@@H]4CCN(C)C[C@@H]4F)cccc3c2CC(F)(F)F)ccc(P(C)(C)=O)c1F [Example 221, (2-fluoro-4-((3-(7-(((3S,4R)-3-fluoro-1-methylpiperidin-4-yl)amino)-3-(2,2,2-trifluoroethyl)benzo[b]thiophen-2-yl)prop-2-yn-1-yl)amino)-3-(methylthio)phenyl)dimethylphosphine oxide] | 169
10 | COc1cc(P(C)(C)=O)ccc1NCC#Cc1sc2c(N[C@H]3CCN(C)C[C@@H]3F)cccc2c1-c1ccc(F)cc1 (racemic) [Example 139, (4-((3-(7-(((E)-3-fluoro-1-methylpiperidin-4-yl)amino)-3-(4-fluorophenyl)benzo[b]thiophen-2-yl)prop-2-yn-1-yl)amino)-3-methoxyphenyl)dimethylphosphine oxide] | 1220
11 | COc1cc(C(=O)N2CCN(C)CC2)ccc1NCC#Cc1sc2c(NC3CCN(C)CC3F)cccc2c1CC(F)(F)F (centres unmarked) [Example 49, (4-((3-(7-(((Z)-3-fluoro-1-methylpiperidin-4-yl)amino)-3-(2,2,2-trifluoroethyl)benzo[b]thiophen-2-yl)prop-2-yn-1-yl)amino)-3-methoxyphenyl)(4-methylpiperazin-1-yl)methanone] | 38
12 | COc1cc(S(C)(=O)=O)ccc1NCC#Cc1sc2c(NC3C4CNCC3CNC4)cccc2c1CC(F)(F)F (centres unmarked) [Example 78, N-(2-(3-((2-methoxy-4-(methylsulfonyl)phenyl)amino)prop-1-yn-1-yl)-3-(2,2,2-trifluoroethyl)benzo[b]thiophen-7-yl)-3,7-diazabicyclo[3.3.1]nonan-9-amine] | 134
13 | COc1cc(P(C)(C)=O)ccc1OCC#Cc1sc2c(N[C@@H]3CCN(C)C[C@@H]3F)cccc2c1CC(F)(F)F (racemic) [Example 123, (4-((3-(7-(((Z)-3-fluoro-1-methylpiperidin-4-yl)amino)-3-(2,2,2-trifluoroethyl)benzo[b]thiophen-2-yl)prop-2-yn-1-yl)oxy)-3-methoxyphenyl)dimethylphosphine oxide] | 147
14 | COc1cc(P(C)(C)=O)ccc1NCC#Cc1sc2c(NC3CCN(C)CC3C#N)cccc2c1CC(F)(F)F (centres unmarked) [Example 90, 4-((2-(3-((4-(dimethylphosphoryl)-2-methoxyphenyl)amino)prop-1-yn-1-yl)-3-(2,2,2-trifluoroethyl)benzo[b]thiophen-7-yl)amino)-1-methylpiperidine-3-carbonitrile] | 272
15 | COc1cc(C(=O)NO)ccc1NCC#Cc1sc2c(NC3CCN(C)CC3F)cccc2c1CC(F)(F)F (centres unmarked) [Example 58, 4-((3-(7-(((Z)-3-fluoro-1-methylpiperidin-4-yl)amino)-3-(2,2,2-trifluoroethyl)benzo[b]thiophen-2-yl)prop-2-yn-1-yl)amino)-N-hydroxy-3-methoxybenzamide] | 90
16 | COc1cc(P(C)(C)=O)ccc1NCC#Cc1sc2c(N[C@@H]3CCN(C4CCS(=O)(=O)CC4)C[C@@H]3F)cccc2c1CC(F)(F)F (relative stereo) [Example 93, (Z)—N-[2-[3-(4-dimethylphosphoryl-2-methoxy-anilino)prop-1-ynyl]-3-(2,2,2-trifluoroethyl)benzothiophen-7-yl]-1-(1,1-dioxothian-4-yl)-3-fluoro-piperidin-4-amine] | 151
17 | COc1cc(NCC#Cc2sc3c(NC4CCN(C)CC4F)cccc3c2CC(F)(F)F)ccc1P(C)(C)=O (centres unmarked) [Example 151, (4-((3-(7-(((Z)-3-fluoro-1-methylpiperidin-4-yl)amino)-3-(2,2,2-trifluoroethyl)benzo[b]thiophen-2-yl)prop-2-yn-1-yl)amino)-2-methoxyphenyl)dimethylphosphine oxide] | 60
18 | CCP(=O)(CC)c1ccc(NCC#Cc2sc3c(NC4CCN(C)CC4F)cccc3c2CC(F)(F)F)c(OC)c1 (centres unmarked) [Example 35, diethyl(4-((3-(7-(((Z)-3-fluoro-1-methylpiperidin-4-yl)amino)-3-(2,2,2-trifluoroethyl)benzo[b]thiophen-2-yl)prop-2-yn-1-yl)amino)-3-methoxyphenyl)phosphine oxide] | 38
19 | COc1cc(S(=O)(=O)N(C)C)ccc1NCC#Cc1sc2c(NC3CCN(C)CC3)cccc2c1CC(F)(F)F [Example 21, 3-methoxy-N,N-dimethyl-4-((3-(7-((1-methylpiperidin-4-yl)amino)-3-(2,2,2-trifluoroethyl)benzo[b]thiophen-2-yl)prop-2-yn-1-yl)amino)benzenesulfonamide] | 341
20 | COc1cc(P(C)(C)=O)ccc1NCC#Cc1sc2c(NC3CCN(C)CC3F)cccc2c1CC#N (centres unmarked) [Example 133, 2-(2-(3-((4-(dimethylphosphoryl)-2-methoxyphenyl)amino)prop-1-yn-1-yl)-7-(((E)-3-fluoro-1-methylpiperidin-4-yl)amino)benzo[b]thiophen-3-yl)acetonitrile] | 311
21 | COc1cc2c(cc1NCC#Cc1sc3c(N[C@@H]4CCN(C)C[C@@H]4F)cccc3c1CC(F)(F)F)CNS2(=O)=O (racemic) [Example 77, 5-((3-(7-(((Z)-3-fluoro-1-methylpiperidin-4-yl)amino)-3-(2,2,2-trifluoroethyl)benzo[b]thiophen-2-yl)prop-2-yn-1-yl)amino)-6-methoxy-2,3-dihydrobenzo[d]isothiazole 1,1-dioxide] | 904
22 | CN1CC[C@@H](Nc2cccc3c(CC(F)(F)F)c(C#CCNc4ccc(P(C)(C)=O)nc4C#N)sc23)[C@@H](F)C1 [Example 224, 6-(dimethylphosphoryl)-3-((3-(7-(((3S,4R)-3-fluoro-1-methylpiperidin-4-yl)amino)-3-(2,2,2-trifluoroethyl)benzo[b]thiophen-2-yl)prop-2-yn-1-yl)amino)picolinonitrile] | 87
23 | CN1CCC(Nc2cccc3c(CC(F)(F)F)c(C#CCNc4ccc(S(C)(=O)=O)c5cc[nH]c45)sc23)CC1 [Example 31, N-(3-(7-((1-methylpiperidin-4-yl)amino)-3-(2,2,2-trifluoroethyl)benzo[b]thiophen-2-yl)prop-2-yn-1-yl)-4-(methylsulfonyl)-1H-indol-7-amine] | 535
24 | C[C@@H](C#Cc1sc2c(NC3CCN(C)CC3)cccc2c1CC(F)(F)F)Nc1ccc(S(N)(=O)=O)cc1 [Example 45, (S)-4-((4-(7-((1-methylpiperidin-4-yl)amino)-3-(2,2,2-trifluoroethyl)benzo[b]thiophen-2-yl)but-3-yn-2-yl)amino)benzenesulfonamide] | 2790
25 | CN1CCC(Nc2cccc3c(CC(F)(F)F)c(C#CCNc4ccc(P(C)(C)=O)cc4)sc23)CC1 [Example 9, dimethyl(4-((3-(7-((1-methylpiperidin-4-yl)amino)-3-(2,2,2-trifluoroethyl)benzo[b]thiophen-2-yl)prop-2-yn-1-yl)amino)phenyl)phosphine oxide] | 114
26 | COCCOc1cc(S(C)(=O)=O)ccc1NCC#Cc1sc2c(NC3CCN(C)CC3)cccc2c1CC(F)(F)F [Example 14, N-[2-[3-[2-(2-methoxyethoxy)-4-methylsulfonyl-anilino]prop-1-ynyl]-3-(2,2,2-trifluoroethyl)benzothiophen-7-yl]-1-methyl-piperidin-4-amine] | 199
